Source: patent US10034828B2, “Hair treatment systems and methods using peptides and other compositions” (priority 2013, dated 2018)

Columns and labels:
[1] = Nitric oxide absorption by carriers (weight gain on bubbling NO gas); assay type: physicochemical; details: NO gas bubbled 40 hr, 25 ° C.
Experimental: This example illustrates one technique for preparing a composition in accordance with one embodiment of the invention. An accurate amount of a carrier (HNC 167-62) (see below) was introduced into a system. The carrier weight used in these experiments was approximately 250 g and the vessel size was 500 ml. The vessel was equipped with a mechanical stirrer, gas inlet, and gas outlet and was previously purged with argon for about an hour. The temperature of the carrier was kept at about 25-30° C. NO gas regulated at 5 psi (1 psi is about 6,900 Pa) and was then introduced at a controlled rate of about 1 bubble/s with continuous stirring. […] After 6 hours, the weight of the carrier had increased by 0.15%, by 12 hours by 0.25%, and by 24 hours by 0.56%. These increases in weight were believed to be significant considering the relative small molecular weight of NO versus the carrier. […] The carrier also can solidify upon cooling if the carrier is initially a solid at lower temperature.
Each carrier was taken in a 500 mL three necked flask equipped with a mechanical stirrer, gas inlet and a gas outlet. The system was purged with argon for one hour at room temperature (25° C.). Then nitric oxide gas was bubbled into the system. Then, nitric oxide gas was bubbled through carrier for stipulated amount of time. The changes in weight and color were noted. […]

[2] = test system: micro-capillary blood flow to skin; assay: Laser Doppler capillary blood flow in humans, 10,000 ppm NO in closed Hilltop chamber (Example 5); assay type: in vivo, human; details: applied to the skin at 1/10% in alcohol
Excerpt: The formulation used in these studies contained nitric oxide dispersed in a lipid matrix. […] Nitric oxide is a very rapid acting molecule, and these studies used a system that employed laser Doppler with a covered chamber. The formulation was placed into the chamber and then attached to the skin by an adhesive layer on the covering. This provided a stable measuring device as determined by multiple normal evaluations of the capillary blood flow without treatment of nitric oxide.
A known positive control, methyl nicotinate, was applied to the skin at a concentration of 1/10% in alcohol. […] The vascular dynamics are such that when the blood vessels dilate physical parameters follow Bernoulli's law. […] The laser Doppler device accurately measured these parameters.
In these studies, the participants were healthy females aged 30 to 55 years. They were in good health as determined by the medical history and were not taking any prescription medications. All study participants read and signed the informed consent statement prior to any study procedures being performed. […]
A Moor Instruments DRT4 Laser Doppler Blood Flow Monitor (Devon, England) was used in these studies. The laser Doppler technique measured blood flow in the microcapillaries of the skin that are close to the skin surface and the blood flow in underlying arterioles and venules that help to regulate skin temperature. […]

[3] = test system: capillary circulation of the skin; assay: Laser Doppler circulation study in five human subjects (Example 8); assay type: in vivo; details: positive control formulation containing 0.1% methyl nicotinate
Excerpt: This example illustrates delivery of nitric oxide formulations to five human subjects, using procedures and formulations similar to those discussed in Example 5. Each person served as their own control for the testing. A Moor Instruments Laser Doppler was used to determine circulation. […] The formulations used produce positive, almost immediate results when applied to the skin which, in these studies, was manifested by vasodilatation of the cutaneous vascular system.
For each subject, the following creams were applied: a negative control formulation (containing no NO), 0.010 gram of a 10,000 ppm NO formulation, 0.020 gram of a 10,000 ppm NO formulation, and a positive control formulation containing 0.1% methyl nicotinate. The formulations were prepared using procedures similar to those discussed in Example 1.

[4] = Carrying of TRH peptide by carrier formulations; assay type: physicochemical; details: TRH concentration of 5.0 mg/cc
Excerpt: Any of the above compositions are effective as carriers for peptides and nitric oxide.

Compound: OCCCO [1,3-Propanediol, 1,3-propanediol]
- % Wt. gain [1]: 0.09%
- Wt. Gain g [1]: 0.16 g

Compound: COC(=O)c1cccnc1 [methyl nicotinate]
- laser Doppler response to positive control [2]: rapid response typical of the vasodilator
- vasodilatation [3]: vasodilatation was observed

Compound: NC(=O)[C@@H]1CCCN1C(=O)[C@H](Cc1cnc[nH]1)NC(=O)[C@@H]1CCC(=O)N1 [TRH, thyrotropin-releasing hormone]
- carrying of the peptide by formulations HNC 156-43, HNC 156-50, HNC 156-47, HNC 159-136 [4]: effectively carried
